Data taken from US5939416A, “Benzo (5,6) cycloheptapyridine compounds useful as farnesyl protein transferase inhibitors” (Schering Corporation, priority 1997, dated 1999).

Assays:
COS Cell = COS Cell IC50 (Cell-Based Assay)
Experimental: (§1) FPT IC50 (inhibition of farnesyl protein transferase, in vitro enzyme assay), COS Cell IC50 (Cell-Based Assay), GGPT IC50 (inhibition of geranylgeranyl protein transferase, in vitro enzyme assay), Cell Mat Assay, and anti-tumor activity (in vivo anti-tumor studies) are determined by the assay procedures described in WO 95/10516.

[1] = biological target: farnesyl protein transferase (Homo sapiens, UniProt P49354+P49356); test: FPT IC50 (inhibition of farnesyl protein transferase, in vitro enzyme assay); assay type: biochemical
Experimental: as §1

Row | IC50 [1] [nM] | SMILES | IC50 (COS Cell) [nM]
1 | 15 | O=C1NCC(CC(=O)N2CCC(C3c4ncc(Br)cc4CCc4cc(Cl)cc(Cl)c43)CC2)CO1 (centres unmarked) [Example 1, 4-(3-Bromo-8,10-dichloro-6,11-dihydro-5H-benzo[5,6]cyclohepta[1,2-b]pyridin-11-yl)-1-[(tetrahydro-2-oxo-2H-1 3-oxazin-5-yl)acetyl]piperidine] | 50
2 | 3.98 | O=C1NCC(CC(=O)N2CCC(C3c4ncc(Br)cc4CCc4cc(Cl)cc(Br)c43)CC2)CO1 (centres unmarked) [Example 2, 4-(3,10-Dibromo-8-chloro-6,11-dihydro-5H-benzo[5,6]cyclohepta[1,2-b]pyridin-11-yl)-1-[(tetrahydro-2-oxo-2H-1,3-oxazin-5-yl)acetyl]piperidine] | 9
3 | 2.3 | O=C1N[C@H](C(=O)N2CCC(CC(=O)N3CCC([C@H]4c5ncc(Br)cc5CCc5cc(Cl)cc(Br)c54)CC3)CC2)CO1 [Example 3] | 7
4 | 1.8 | O=C1NC[C@@H](C(=O)N2CCC(CC(=O)N3CCC([C@H]4c5ncc(Br)cc5CCc5cc(Cl)cc(Br)c54)CC3)CC2)N1 [Example 4] | 33
